# Test results as given in patent US8420341B2, “Methods for measuring ADP” (Genewiz Inc., Suzhou, priority 2007, dated 2013).
# Target: PKA (Homo sapiens, UniProt P17612)
# Test: PKA kinase reaction, ADP luminescent enzyme-coupled assay
# Type: biochemical
# Conditions: 5 μM ATP, 30 μM Kemptide, 2.5 nM PKA, 90 minutes at room temperature; FIGS. 4A-4B
# Description: Assay Procedures 1. Add 10 μl reagent A to 30 μl kinase reaction mixtures and incubate at RT. 2. Add 10 μl reagent B and read luminescence immediately.
# At the end of incubation, 10 μl Reagent B were added and luminescence was measured. Each data point represents the average of 3 repeats.
structure (smiles),measurement,value
O=S(=O)(NCCNC/C=C/c1ccc(Br)cc1)c1cccc2cnccc12 [H89],luminescence signals (PKA activity) with increasing amounts of inhibitor,decreased luminescence signals in a dose dependent manner
